Experiments:
F21T = assay: FRET-melting assay; type: binding; details: F21T 1.0 μM, compound 2.0 μM
Method: (§1) We asked whether chiral platinum(II) complexes 4–6 have the ability to bind to G-quadruplex DNA. To address this, FRET assays, CD spectroscopy, G4-FID assays, and fluorescence titration analysis were performed. […] For G4-HTG21, the ^G4DC50 values of complexes 4–6 were 1.23, 1.26 and 0.99 μM, respectively; while, for G4-Pu27, the ^G4DC50 values were 1.01, 0.89, and 0.82 μM, respectively. In addition, the ^ctDNADC50/^G4DC50 ratio of the HTG21 and Pu27 G4s treated with complexes 4–6 was in the range of 50.54-90.65 and 71.56-110.67 folds, respectively. To further evaluate the binding ability of complexes 4–6 to Pu27 and HTG21G4s, CD spectroscopy and fluorescence titration analysis were performed. […] The quenching ability of complexes 4–6 to HTG21 and Pu27 G4 DNA fluorescence can be quantitatively estimated by their respective quenching constant (Kq), which was derived from the Stern-Volmer quenching equation. […] Finally, the selective binding of complexes 4–6 towards G4 DNA was analyzed by FRET-melting assays. […] In contrast, the ΔTm value for the F32T+H20M duplex DNA in the presence of complexes 4–6 was 1.18, 1.34, and 0.78 °C under the same conditions (Figure 4A). Altogether, our data indicated complexes 4–6, especially complex 6, is the best binder to G4 DNA, which caused DNA complex displaying the highest thermodynamic stability.
(§2) Figure 4 Complexes 4–6 induced telomeres damage and inhibited the telomerase activity through directly regulating the mRNA level of c-myc promoter (Pu27) (A) ΔTm data (°C) of 1.0 μM HTG21, Pu39 and c-myc G4s and duplex DNA (F32T+H20M) treated with complexes 1–6 at 0–2.0 μM were evaluated by […]. (B) The levels of TRF2, 53BP1, and TRF1 in BEL-7404 cells treated with complexes 4–6 at 10 μM for 24 h were examined by Western blot. (C) The whole-cell extracts were prepared and analyzed by Western blot analysis using antibodies against TRF2, 53BP1, and TRF1. The same blots were stripped and re-probed with β-actin antibody to show equal protein loading. Western blotting bands from three independent measurements were quantified with Image J. in (B). (D) The influence of complexes 4–6 (10 μM) on the telomerase activity of the BEL-7404 cells for 24 h. (E) The investigations of the expression of c-myc and hTERT in the BEL-7404 tumor cells when incubated with complexes 4–6 (10 μM) for 24 h. C-myc and hTERT protein levels in BEL-7404 cells were analyzed by western blot. (F) The whole-cell extracts were prepared and analyzed by Western blot analysis using antibodies against c-myc and hTERT. The same blots were stripped and re-probed with β-actin antibody to show equal protein loading. Western blotting bands from three independent measurements were quantified with Image J. in (E). (G) qRT-PCR analysis of the expression levels of hTERT and c-myc in the BEL-7404 cells treated with complexes 4–6 (10 μM). The BEL-7404 cells (5×10^5) were treated with complexes 4–6 (10 μM) for 24 h. The total RNA in the cells was extracted and subjected to reverse transcription, followed by PCR for c-myc, hTERT, and GAPDH (control). (H) and (I) The investigations of the role of the transfections of EGFP plasmid vector (H) and c-myc plasmid vector (I) in the BEL-7404 tumor cells when incubated with complexes 4–6 (10 μM) for 24 h. First, 2.0 μg of EGFP-carrying plasmid vector or 2.0 μg of c-myc-carrying plasmid vector was cotransfected into BEL-7404 cells using Lipofectamine 2000 (Invitrogen, Grand Island, NY, USA). Complexes 4–6 (10 μM) were then added, respectively, into medium at 6.0 h after transfection of c-myc plasmid. At another 24 h after treatment with complexes 4–6 (10 μM), these cells were imaged using Nikon TE2000 (Japan) scanning fluorescent microscope or were examined by Multimodel Plate Reader with luciferase reporter gene assay kit. […]

F32T+H20M duplex DNA = assay: FRET-melting assay; type: binding; details: F32T+H20M duplex DNA 1.0 μM, compound 2.0 μM
Method: as §1, §2

FPu18T = assay: FRET-melting assay; type: binding; details: FPu18T 1.0 μM, compound 2.0 μM
Method: as §1, §2

HL-7702 normal cells = details: ref [1], cited from earlier work; for selectivity index factor, IC50 (normal HL-7702 cells)/IC50 (BEL-7404 tumor cells): 48 h; for IC50: HL-7702, 48 h

For cis-[PtCl2(S-(–)-FOA)] [complex 6], the ΔTm (F21T) was 20.07 °C, the ΔTm (F32T+H20M duplex DNA) was 0.78 °C and the ΔTm (FPu18T) was 23.01 °C.

In the case of `O=C(NC[C@H](O)CO)c1cnc2c3c(cccc13)-c1ccccc1C2=O.[Cl-].[Cl-].[Pt+2]` [ligand 3, S-(–)-FOA], the “selectivity index factor, IC50 (normal HL-7702 cells)/IC50 (BEL-7404 tumor cells)” value (from here on “selectivity index factor, IC50”) (HL-7702 normal cells) is given as 5.3 and the IC50 (HL-7702 normal cells) is given as 81.4 ± 2.7 µM.

For cis-[PtCl2(R-(+)-FOA)] [complex 5], the ΔTm (F21T) was 12.95 °C, the ΔTm (F32T+H20M duplex DNA) was 1.34 °C and the ΔTm (FPu18T) was 16.66 °C.

For `O=C(NC[C@@H](O)CO)c1cnc2c3c(cccc13)-c1ccccc1C2=O.[Cl-].[Cl-].[Pt+2]` [ligand 2, R-(+)-FOA], the “selectivity index factor, IC50” value (HL-7702 normal cells) is listed as greater than 4.9 and the IC50 (HL-7702 normal cells) is listed as greater than 100 µM.

Compound cis-[PtCl2(R/S-(±)-FOA)] [complex 4] has a ΔTm (F21T) of 13.19 °C, a ΔTm (F32T+H20M duplex DNA) of 1.18 °C and a ΔTm (FPu18T) of 19.15 °C.

For `O=C(NCC(O)CO)c1cnc2c3c(cccc13)-c1ccccc1C2=O.[Cl-].[Cl-].[Pt+2]` (racemic) [ligand 1, R/S-(±)-FOA], the “selectivity index factor, IC50” value (HL-7702 normal cells) is listed as greater than 5.8 and the IC50 (HL-7702 normal cells) is listed as greater than 100 µM.

From article PMC5617480 (Oncotarget, 2017)
